{"source": "PubChem BioAssay AID330", "about": "(DTP/NCI, 2004)", "test_system": "P388 leukemia ip, CD2F1 mice, survival T/C", "experiment": "NCI In Vivo Anticancer Drug Screen. Data for tumor model P388 Leukemia (intraperitoneal) in CD2F1 (CDF1) mice", "settings": "endpoint: median survival time, higher = longer survival", "in_short": "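Mice carrying the transplanted tumor received test compound or vehicle. Survival was recorded in each group, and the value is the treated-group measurement divided by that of the vehicle-treated control group.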", "note": "Where “and” joins values, the source holds several entries; their conditions need not be identical. Identical values can stand only once. Inconclusive results and toxic doses are left out.", "data": [{"smiles": "CCOC(=O)CC1(C)c2nc(NC(C)=O)sc2Cc2sc(NC(C)=O)nc21", "values": [{"measurement": "T/C", "setting": "dose: 60.0 mg/kg/injection, schedule: Q01DX005 (ip), vehicle: saline", "result": "101 % of control"}, {"measurement": "T/C", "setting": "dose: 120.0 mg/kg/injection, schedule: Q01DX005 (ip), vehicle: saline", "result": "100 % of control"}, {"measurement": "T/C", "setting": "dose: 240.0 mg/kg/injection, schedule: Q01DX005 (ip), vehicle: saline", "result": "100 % of control"}]}, {"smiles": "CC(C)=CCCC(C)(OC1OC(CO)C(O)C(O)C1O)C1CCC2(C)C1C(O)CC1C3(C)CCC(O)C(C)(C)C3C(OC3OC(CO)C(O)C(O)C3OC3OC(C)C(O)C(O)C3O)CC12C", "note": "(stereo unspecified) (tested in a mixture with another compound)", "values": [{"measurement": "T/C", "setting": "dose: 18.75 mg/kg/injection, schedule: Q01DX009 (ip), vehicle: Klucel (hydroxypropylcellulose) (HPC)", "result": "101 % of control"}, {"measurement": "T/C", "setting": "dose: 37.5 mg/kg/injection, schedule: Q01DX009 (ip), vehicle: Klucel (hydroxypropylcellulose) (HPC)", "result": "101 % of control"}, {"measurement": "T/C", "setting": "dose: 75.0 mg/kg/injection, schedule: Q01DX009 (ip), vehicle: Klucel (hydroxypropylcellulose) (HPC)", "result": "100 % of control"}, {"measurement": "T/C", "setting": "dose: 150.0 mg/kg/injection, schedule: Q01DX009 (ip), vehicle: Klucel (hydroxypropylcellulose) (HPC)", "result": "100 % of control"}]}, {"smiles": "CCC1(O)CC2CN(CCc3c([nH]c4ccccc34)C(C(=O)OC)(c3cc4c(cc3OC)N(C)C3C(O)(C(N)=O)C(O)C5(CC)C=CCN6CCC43C65)C2)C1", "note": "(stereo unspecified) (tested in a mixture with another compound)", "values": [{"measurement": "T/C", "setting": "dose: 0.06 mg/kg/injection, schedule: Q01DX009 (ip), vehicle: water", "result": "107 % of control"}, {"measurement": "T/C", "setting": "dose: 0.11 mg/kg/injection, schedule: Q04DX003 (ip), vehicle: clinical formulation", "result": "158 % of control"}, {"measurement": "T/C", "setting": "dose: 0.13 mg/kg/injection, schedule: Q04DX003 (ip), vehicle: saline", "result": "161 % of control"}, {"measurement": "T/C", "setting": "dose: 0.18 mg/kg/injection, schedule: Q04DX003 (ip), vehicle: clinical formulation", "result": "161 % of control"}, {"measurement": "T/C", "setting": "dose: 0.22 mg/kg/injection, schedule: Q01DX009 (ip), vehicle: water", "result": "123 % of control"}, {"measurement": "T/C", "setting": "dose: 0.25 mg/kg/injection, schedule: Q04DX003 (ip), vehicle: water", "result": "158 % of control"}, {"measurement": "T/C", "setting": "dose: 0.3 mg/kg/injection, schedule: Q04DX003 (ip), vehicle: clinical formulation", "result": "180 % of control"}, {"measurement": "T/C", "setting": "dose: 0.5 mg/kg/injection, schedule: Q04DX003 (ip), vehicle: clinical formulation", "result": "179 % of control"}, {"measurement": "T/C", "setting": "dose: 0.5 mg/kg/injection, schedule: Q04DX003 (ip), vehicle: saline", "result": "203 % of control and 216 % of control"}, {"measurement": "T/C", "setting": "dose: 0.5 mg/kg/injection, schedule: Q04DX003 (ip), vehicle: water", "result": "163 % of control"}, {"measurement": "T/C", "setting": "dose: 0.6 mg/kg/injection, schedule: Q01DX009 (ip), vehicle: water", "result": "97 % of control"}, {"measurement": "T/C", "setting": "dose: 0.67 mg/kg/injection, schedule: Q04DX003 (ip), vehicle: saline", "result": "177 % of control"}, {"measurement": "T/C", "setting": "dose: 0.67 mg/kg/injection, schedule: Q04DX003 (ip), vehicle: water", "result": "202 % of control"}, {"measurement": "T/C", "setting": "dose: 0.83 mg/kg/injection, schedule: Q04DX003 (ip), vehicle: clinical formulation", "result": "215 % of control"}, {"measurement": "T/C", "setting": "dose: 1.0 mg/kg/injection, schedule: Q01DX009 (ip), vehicle: water", "result": "100 % of control and 223 % of control"}, {"measurement": "T/C", "setting": "dose: 1.0 mg/kg/injection, schedule: Q04DX003 (ip), vehicle: saline", "result": "189 % of control and 191 % of control"}, {"measurement": "T/C", "setting": "dose: 1.0 mg/kg/injection, schedule: Q04DX003 (ip), vehicle: water", "result": "188 % of control and 200 % of control"}, {"measurement": "T/C", "setting": "dose: 1.08 mg/kg/injection, schedule: Q04DX003 (ip), vehicle: clinical formulation", "result": "170 % of control"}, {"measurement": "T/C", "setting": "dose: 1.3 mg/kg/injection, schedule: Q04DX003 (ip), vehicle: water", "result": "222 % of control"}, {"measurement": "T/C", "setting": "dose: 1.5 mg/kg/injection, schedule: Q04DX003 (ip), vehicle: saline", "result": "184 % of control"}, {"measurement": "T/C", "setting": "dose: 1.5 mg/kg/injection, schedule: Q04DX003 (ip), vehicle: water", "result": "268 % of control"}, {"measurement": "T/C", "setting": "dose: 1.8 mg/kg/injection, schedule: Q04DX003 (ip), vehicle: clinical formulation", "result": "173 % of control"}, {"measurement": "T/C", "setting": "dose: 2.0 mg/kg/injection, schedule: Q04DX003 (ip), vehicle: water", "result": "186 % of control and 283 % of control"}, {"measurement": "T/C", "setting": "dose: 3.0 mg/kg/injection, schedule: Q04DX003 (ip), vehicle: clinical formulation", "result": "95 % of control"}, {"measurement": "T/C", "setting": "dose: 3.0 mg/kg/injection, schedule: Q04DX003 (ip), vehicle: water", "result": "123 % of control"}]}, {"smiles": "Nc1nnc(Cc2ccccc2[N+](=O)[O-])c(=O)[nH]1", "values": [{"measurement": "T/C", "setting": "dose: 50.0 mg/kg/injection, schedule: Q01DX009 (ip), vehicle: Klucel (hydroxypropylcellulose) (HPC)", "result": "113 % of control"}, {"measurement": "T/C", "setting": "dose: 100.0 mg/kg/injection, schedule: Q01DX009 (ip), vehicle: Klucel (hydroxypropylcellulose) (HPC)", "result": "115 % of control"}, {"measurement": "T/C", "setting": "dose: 200.0 mg/kg/injection, schedule: Q01DX009 (ip), vehicle: Klucel (hydroxypropylcellulose) (HPC)", "result": "105 % of control"}]}, {"smiles": "O=C1/C(=C/c2cccs2)CCc2ccccc21", "values": [{"measurement": "T/C", "setting": "dose: 60.0 mg/kg/injection, schedule: Q01DX005 (ip), vehicle: Klucel (hydroxypropylcellulose) (HPC)", "result": "100 % of control"}, {"measurement": "T/C", "setting": "dose: 120.0 mg/kg/injection, schedule: Q01DX005 (ip), vehicle: Klucel (hydroxypropylcellulose) (HPC)", "result": "107 % of control"}, {"measurement": "T/C", "setting": "dose: 240.0 mg/kg/injection, schedule: Q01DX005 (ip), vehicle: Klucel (hydroxypropylcellulose) (HPC)", "result": "98 % of control"}]}, {"smiles": "CC(=O)Nc1nc2ncc(CN(C(C)=O)c3ccc(C4=NC(CCC(=O)O)C(=O)O4)cc3)nc2c(=O)[nH]1", "note": "(stereo unspecified)", "values": [{"measurement": "T/C", "setting": "dose: 50.0 mg/kg/injection, schedule: Q04DX003 (ip), vehicle: alkali diluted with saline", "result": "97 % of control"}, {"measurement": "T/C", "setting": "dose: 100.0 mg/kg/injection, schedule: Q04DX003 (ip), vehicle: alkali diluted with saline", "result": "95 % of control"}, {"measurement": "T/C", "setting": "dose: 200.0 mg/kg/injection, schedule: Q04DX003 (ip), vehicle: alkali diluted with saline", "result": "102 % of control"}]}]}
